Legend:
[1] = Plasma elimination half-life in man; format: in vivo; conditions: human, read-out: plasma elimination half-life, t1/2 (converted)

half-life [1]: 35 h
solubility (physchem; 0.1 M HCl, simulated gastric fluid): 11 mg/mL
solubility (physchem; ethanol/water 1:1, aqueous with cosolvent or surfactant or cyclodextrin): 19 mg/mL
solubility (physchem; water): 6.4 mg/mL
SMILES: Br.Cc1ccc(N2CCN(C)CC2)c2c1CC[C@@H](NC(=O)c1ccc(N3CCOCC3)cc1)C2 [(R)-N-[5-methyl-8-(4-methylpiperazin-1-yl)-1,2,3,4-tetrahydro-2-naphthyl]-4-morpholinobenzamide monohydrobromide]
